# Reference: US12552748B2, “Pyridine (thio)amides as fungicidal compounds” (Bayer Aktiengesellschaft, priority 2020, dated 2026)
# Marks after values point to notes of the source that are not given here.
# Assay: physchem
# Assay type: physicochemical
# Description: Measurement of Log P values as provided herein was performed according to EEC directive 79/831 Annex V.A8 by HPLC (High Performance Liquid Chromatography) on reversed phase columns with the following methods: […] If more than one Log P value is available within the same method, all the values are given and separated by “+”. Calibration was done with straight-chain alkan2-ones (with 3 to 16 carbon atoms) with known Log P values (measurement of Log P values using retention times with linear interpolation between successive alkanones). Lambda-max-values were determined using UV-spectra from 200 nm to 400 nm and the peak values of the chromatographic signals
chromatographic logP,Structure (SMILES),LogP
–,CON=C(C)c1cc(C(=O)NCCc2ccc(C)cc2C)c(Oc2cccc(C(F)(F)F)c2)cn1 (mixture of isomers) [Compound I-251],5.36^[a]
–,O=C(NCC(F)c1ccc(Cl)cc1Cl)c1cc(Cl)ncc1Oc1cccc(Cl)c1 (racemic) [Compound I-035],4.80^[a]
–,O=C(NCC(F)c1ccc(Cl)cc1Cl)c1cc(Cl)ncc1Oc1cccc(C(F)F)c1 (racemic) [Compound I-037],4.40^[a]
–,COc1cccc(Oc2cnc(Cl)cc2C(=O)NCC(F)c2ccc(Cl)cc2Cl)c1 (racemic) [Compound I-041],4.51^[a]
–,Cc1cccc(Oc2cnc(Cl)cc2C(=O)NCC(F)c2ccc(Cl)cc2Cl)c1 (racemic) [Compound I-043],4.92^[a]
–,Cc1cc(C(=O)NCC(F)c2ccc(Cl)cc2Cl)c(Oc2cccc(Cl)c2)cn1 (racemic) [Compound I-053],4.12^[a]
–,Cc1ccc(C(F)CNC(=O)c2cc(C)ncc2Oc2cccc(Cl)c2)c(Cl)c1 (racemic) [Compound I-054],3.98^[a]
–,Cc1cc(C(=O)NCC(F)c2ccc(Cl)cc2Cl)c(Oc2cccc(C(F)F)c2)cn1 (racemic) [Compound I-055],3.78^[a]
–,Cc1cccc(Oc2cnc(C)cc2C(=O)NCC(F)c2ccc(C)cc2Cl)c1 (racemic) [Compound I-056],3.96^[a]
–,O=C(NCC(F)c1ccc(Cl)cc1Cl)c1cc(Cl)ncc1Oc1cccc(C2CC2)c1F (racemic) [Compound I-060],5.17^[a]
–,O=C(NCC(F)c1ccc(Cl)cc1Cl)c1cc(Cl)ncc1Oc1cccc(C2CC2)c1 (racemic) [Compound I-063],4.92^[a]
–,Cc1ccc(C(F)CNC(=O)c2cc(C)ncc2Oc2cccc(C3CC3)c2)c(Cl)c1 (racemic) [Compound I-073],4.30^[a]
–,O=C(NCC(F)c1ccc(Cl)cc1Cl)c1cc(C2CC2)ncc1Oc1cccc(C2CC2)c1F (racemic) [Compound I-074],5.32^[a]
–,Cc1ccc(C(F)CNC(=O)c2cc(C)ncc2Oc2cccc(C3CC3)c2F)c(Cl)c1 (racemic) [Compound I-076],4.49^[a]
–,Cc1cc(C(=O)NCC(F)c2ccc(Cl)cc2Cl)c(Oc2cccc(C3CC3)c2F)cn1 (racemic) [Compound I-078],4.49^[a]
–,Cc1ccc(C(F)CNC(=O)c2cc(Cl)ncc2Oc2cccc(C(F)(F)F)c2)cc1C (racemic) [Compound I-079],4.70^[a]
–,Cc1cc(C(F)F)ccc1C(F)CNC(=O)c1cc(Cl)ncc1Oc1cccc(C(F)(F)F)c1 (racemic) [Compound I-080],4.40^[a]
–,COc1cc(C(F)CNC(=O)c2cc(Cl)ncc2Oc2cccc(C(F)(F)F)c2)ccc1Cl (racemic) [Compound I-081],4.37^[a]
–,O=C(NCC(F)c1ccc(Cl)c(Cl)c1)c1cc(Cl)ncc1Oc1cccc(C(F)(F)F)c1 (racemic) [Compound I-082],4.81^[a]
–,Cc1ccc(C(F)CNC(=O)c2cc(Cl)ncc2Oc2cccc(C(F)(F)F)c2)c(Cl)c1 (racemic) [Compound I-083],4.78^[a]
–,Cc1cc(Cl)ccc1C(F)CNC(=O)c1cc(Cl)ncc1Oc1cccc(C(F)(F)F)c1 (racemic) [Compound I-084],4.81^[a]
–,O=C(NCC(F)c1ccc(C2CC2)cc1Cl)c1cc(Cl)ncc1Oc1cccc(C(F)(F)F)c1 (racemic) [Compound I-085],5.08^[a]
–,Cc1cc(Br)ccc1C(F)CNC(=O)c1cc(Cl)ncc1Oc1cccc(C(F)(F)F)c1 (racemic) [Compound I-086],4.93^[a]
–,O=C(NCC(F)c1ccc(Cl)cc1Cl)c1cc(Cl)nc(F)c1Oc1cccc(C(F)(F)F)c1 (racemic) [Compound I-091],5.08^[a]

chromatographic logP,Structure (SMILES),LogP
–,Cc1cccc(Oc2cnc(C)cc2C(=O)NCC(F)c2ccc(Cl)cc2Cl)c1 (racemic) [Compound I-161],4.13^[a]
–,C[Si](C)(C)C#Cc1cc(C(=O)NCC(F)c2ccc(Cl)cc2Cl)c(Oc2cccc(C(F)(F)F)c2)cn1 (racemic) [Compound I-176],6.01^[a]
–,C#Cc1cc(C(=O)NCC(F)c2ccc(Cl)cc2Cl)c(Oc2cccc(C(F)(F)F)c2)cn1 (racemic) [Compound I-189],4.41^[a]
–,CCc1cc(C(=O)NCC(F)c2ccc(Cl)cc2Cl)c(Oc2cccc(C3CC3)c2)cn1 (racemic) [Compound I-190],4.92^[a]
–,O=C(NCC(F)c1ccc(Cl)cc1Cl)c1cc(-c2ccncc2Cl)ncc1Oc1cccc(C(F)(F)F)c1 (racemic) [Compound I-195],4.68^[a]
–,Cc1ccc(C(F)CNC(=O)c2cc(C)ncc2Oc2cccc(C(F)(F)F)c2)c(Cl)c1 (racemic) [Compound I-263],4.08^[a]
–,"Cc1ccc(CCNC(=O)c2cc(Cl)ncc2Oc2cccc(C3CC3F)c2)c(C)c1 (single isomer, unassigned) [Compound I-265]",4.70^[a]
–,O=C(O)c1cc(Cl)ncc1Oc1cccc(C(F)(F)F)c1 [Compound 1-001],2.84^[a]
–,C#Cc1cc(C(=O)O)c(Oc2cccc(C(F)(F)F)c2)cn1 [Compound 1-002],2.39^[a]
–,C#Cc1cc(C(=O)OC)c(Oc2cccc(C(F)(F)F)c2)cn1 [Compound 1-003],3.46^[a]
–,COC(=O)c1cc(C#C[Si](C)(C)C)ncc1Oc1cccc(C(F)(F)F)c1 [Compound 1-004],5.35^[a]
–,O=C(O)c1cc(Cl)ncc1Oc1cccc(Cl)c1 [Compound 1-005],2.76^[a]
–,O=C(O)c1cc(Cl)ncc1Oc1cccc(C(F)F)c1 [Compound 1-006],2.48^[a]
–,COc1cccc(Oc2cnc(Cl)cc2C(=O)O)c1 [Compound 1-007],2.34^[a]
–,Cc1cccc(Oc2cnc(Cl)cc2C(=O)O)c1 [Compound 1-008],2.60^[a]
–,O=C(O)c1cc(Cl)ncc1Oc1cccc(C2CC2)c1F [Compound 1-009],2.97^[a]
–,O=C(O)c1cc(Cl)ncc1Oc1cccc(C2CC2)c1 [Compound 1-010],2.87^[a]
2.54,"CC(=O)c1cc(C(=O)O)c(Oc2cccc(C(F)(F)F)c2)cn1 [Compound 1-011, 2-acetyl-5-[3-(trifluoromethyl)phenoxy]pyridine-4-carboxylic acid]",–
3.59,"COC(=O)c1cc(C(C)=O)ncc1Oc1cccc(C(F)(F)F)c1 [Compound 1-012, methyl 2-acetyl-5-[3-(trifluoromethyl)phenoxy]pyridine-4-carboxylate]",–
4.7,"C=C(OCC)c1cc(C(=O)OC)c(Oc2cccc(C(F)(F)F)c2)cn1 [Compound 1-013, methyl 2-(1-ethoxyvinyl)-5-[3-(trifluoromethyl)phenoxy]pyridine-4-carboxylate]",–
2.95,"O=C(O)c1cc(Cl)nc(F)c1Oc1cccc(C(F)(F)F)c1 [Compound 1-014, 6-chloro-2-fluoro-3-[3-(trifluoromethyl)phenoxy]pyridine-4-carboxylic acid]",–
–,N#Cc1nc(Cl)cc(C(=O)O)c1Oc1cccc(C(F)(F)F)c1 [Compound 1-016],2.40^[a]
–,COc1cc(C(=O)O)c(Oc2cccc(C(F)(F)F)c2)cn1 [Compound 1-017],2.86^[a]
–,COc1cc(C(=O)NCCc2ccc(C)cc2C)c(Oc2cccc(C(F)(F)F)c2)cn1 [Compound 1-160],4.69^[a]
